# Data from patent US20250136612A1, “4',5'-DIHYDROSPIRO[PIPERIDINE-4,7'-THIENO[2,3-C]PYRAN] DERIVATIVES AS INHIBITORS OF APOL1 AND METHODS OF USING SAME” (VERTEX PHARMACEUTICALS INCORPORATED, priority 2022, published 2025).
# Target: T1, APOL1 (Homo sapiens, UniProt O14791)
# T1 sequence (O14791 1-398 S342G/I384M): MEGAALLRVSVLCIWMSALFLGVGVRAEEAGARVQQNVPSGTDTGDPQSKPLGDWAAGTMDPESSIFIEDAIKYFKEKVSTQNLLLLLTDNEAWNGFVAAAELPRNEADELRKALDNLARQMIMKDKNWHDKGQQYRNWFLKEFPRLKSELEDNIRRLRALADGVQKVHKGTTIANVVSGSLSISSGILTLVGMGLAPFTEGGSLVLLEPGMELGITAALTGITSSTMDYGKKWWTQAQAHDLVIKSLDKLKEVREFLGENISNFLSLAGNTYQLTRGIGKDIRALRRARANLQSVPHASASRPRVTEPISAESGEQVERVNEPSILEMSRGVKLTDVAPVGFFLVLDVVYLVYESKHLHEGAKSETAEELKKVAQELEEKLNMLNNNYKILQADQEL
# Assay: MultiTox-Fluor Multiplex Cytotoxicity Assay in tet-inducible APOL1 T-REx-HEK293 cells
# Type: cell-based
# Conditions: 50 ng/mL tet, 24 hours, ratio of dead to live cells, read-out: IP50 (i.e., IC50 for cell proliferation)
# Protocol: The MultiTox-Fluor Multiplex Cytotoxicity Assay is a single-reagent-addition, homogeneous, fluorescence assay that measures the number of live and dead cells simultaneously in culture wells. The assay measures cell viability and cytotoxicity by detecting two distinct protease activities. The live-cell protease activity is restricted to intact viable cells and is measured using a fluorogenic, cell-permeant peptide glycyl-phenylalanylamino fluorocoumarin (GF-AFC) substrate. The substrate enters intact cells, where it is cleaved to generate a fluorescent signal proportional to the number of living cells. […] A second, cell-impermeant, fluorogenic peptide substrate (bis-AAF-R110 Substrate) is used to measure dead-cell protease that has been released from cells that have lost membrane integrity. A ratio of dead to live cells is used to normalize data.
# Briefly, the tet-inducible transgenic APOL1 T-REx-HEK293 cell lines were incubated with 50 ng/mL tet to induce APOL1 in the presence of 3-(2-(4-fluorophenyl)-1H-indol-3-yl)-N-((3S,4R)-4-hydroxy-2-oxopyrrolidin-3-yl)propenamide at 10.03, 3.24, 1.13, 0.356, 0.129, 0.042, 0.129, 0.0045, 0.0015, 0.0005 μM in duplicate for 24 hours in a humidified 37° C. incubator. The MultiTox reagent was added to each well and placed back in the incubator for an additional 30 minutes. The plate was read on the EnVision plate reader. A ratio of dead to live cells was used to normalize, and data was imported, analyzed, and fit using Genedata Screener (Basel, Switzerland) software. Data was normalized using percent of control, no tet (100% viability), and 50 ng/mL tet treated (0% viability),and fit using Smart Fit. The reagents, methods, and complete protocol for the MultiTox assay are described below.
# Human embryonic kidney (HEK293) cell lines containing a tet-inducible expression system (T-REx™; Invitrogen, Carlsbad, CA) and Adeno-associated virus site 1 pAAVS1-Puro-APOL1 G0 or pAAVS1-Puro-APOL1 G1 or pAAVS1-Puro-APOL1 G2 Clones G0 DC2.13, G1 DC3.25, and G2 DC4.44 were grown in a T-225 flask at ˜90% confluency in cell growth media (DMEM, 10% Tet-free FBS, 2 mM L-glutamine, 100 Units/mL penicillin-streptomycin, 5 μg/mL blasticidin S HCl, 1 μg/mL puromycin dihydrochloride). Cells were washed with DPBS and then trypsinized to dissociate from the flask. Media was used to quench the trypsin, cells were then pelleted at 200 g and resuspended in fresh cell assay media (DMEM, 2% Tet-free FBS, 2 mM L-glutamine, 100 Units/mL penicillin-streptomycin). Cells were counted and diluted to 1.17×10^6 cells/mL. 20 μL of cells (23,400/well) were dispensed in every well of a 384-well Poly-D-Lysine coated plate using the Multidrop dispenser. The plates were then incubated at room temperature for one hour.
# Tetracycline is needed to induce APOL1 expression. 1 mg/mL tet stock in water was diluted to 250 ng/mL (5×) in cell assay media. 60 μL of cell assay media (no tet control) was dispensed in columns 1 and 24, and 60 μL of 5×tet in 384-PP-round bottom plate was dispensed in columns 2 to 23 with the Multidrop dispenser.
# Assay ready plates from the Global Compound Archive were ordered using template 384_APOL1Cell_DR10n2_50 uM_v3. Compounds were dispensed at 200 nL in DMSO. The final top concentration was 10 μM with a 10 point 3-fold dilution in duplicate in the MultiTox assay.
# 20 μL was transferred from the 5×tet plate to the ARP and mixed, then 5 μL of 5×tet and the compounds were transferred to the cell plate and mixed using the Bravo. The cell plate was placed in the humidified 37° C. 5% CO2 incubator for 24 hours.
# The MultiTox-Fluor Multiplex Cytotoxicity Assay was performed in accordance with the manufacturer's protocol. After cells were incubated with tet and compound for 24 hours, 25 μL of 1×MultiTox reagent was added to each well using the Multidrop dispenser; the plates were placed on a plate shaker (600 rpm) for 2 minutes, then centrifuged briefly and placed back in the 37° C. incubator for 30 minutes. […]
row,SMILES,IC50
1,Clc1cc2c(s1)[C@@]1(CCN[C@H](c3c[nH]nn3)C1)OCC2 [Compound 77],500 to 1000 nM
2,"Cc1cc([C@@H]2C[C@]3(CCN2)OCCc2cc(Cl)sc23)no1 (single isomer, unassigned) [Compound 23]",100 to 500 nM
3,"Cn1cc([C@@H]2C[C@]3(CCN2)OCCc2cc(Cl)sc23)cn1 (single isomer, unassigned) [Compound 24]",< 100 nM
4,FC(F)Cc1cc2c(s1)C1(CCNC(c3ccccc3)C1)OCC2 (stereo not drawn) [Compound 50],100 to 500 nM
5,Cn1cc(C2CC3(CCN2)OCCc2cc(CC(F)F)sc23)nn1 (stereo not drawn) [Compound 49],< 100 nM
6,CCc1cc2c(s1)C1(CCNC(c3cc(C)no3)C1)OCC2 (stereo not drawn) [Compound 6],< 100 nM
7,CCc1cc2c(s1)C1(CCNC(c3cn(C)nn3)C1)OCC2 (stereo not drawn) [Compound 4],100 to 500 nM
8,CN1Cc2ccc(-n3cc([C@@H]4C[C@]5(CCN4)OCCc4cc(Cl)sc45)nn3)cc2C1=O [Compound 62],100 to 500 nM
9,"Cn1cc([C@@H]2CC3(CCN2)OCCc2cc(C4CC4)sc23)nn1 (stereo partly drawn) [Compound 30, (2S)-2′-cyclopropyl-2-(1-methyl-1H-1,2,3-triazol-4-yl)-4′,5′-dihydrospiro[piperidine-4,7′-thieno[2,3-c]pyran]]",500 to 1000 nM
